Experimental data published in paper PMC11164105, “Exploring of N-phthalimide-linked 1,2,3-triazole analogues with promising -anti-SARS-CoV-2 activity: synthesis, biological screening, and molecular modelling studies” (Journal of Enzyme Inhibition and Medicinal Chemistry, 2024).
Like-named read-outs stand apart in the source and are kept apart here.

What was measured:
[1] = test system: SARS-CoV-2 isolate EGY/WAT-2 VACCERA; assay: microbe, parasite or virus in culture; format: cell-based; conditions: for inhibition at 10 µM: Severe acute respiratory syndrome coronavirus 2, Vero C1008, 10 uM; for (API) Antiviral potency index: ratio of the inhibition % of the tested compound to that of Remdesivir at 10 μM, 1 = identical effect
SARS-CoV-2 Mpro = molecular target: T1, SARS-CoV-2 Mpro (Severe acute respiratory syndrome coronavirus 2, UniProt P0DTD1); assay: SARS-CoV-2 Mpro inhibition assay (BPS Bioscience, FRET peptide); format: biochemical
T1 construct: purchased BPS Bioscience

SARS-CoV-2 [2] = test system: SARS-CoV-2; design: method as in PMID 34750163; conditions: ritonavir and Nirmatrelvir used in conjunction; cited from earlier work
SARS-CoV-2 [3] = test system: SARS-CoV-2; design: method as in PMID 36986562; conditions: 10 µM, Vero 6 cells; cited from earlier work
main protease Mpro = test system: main protease Mpro; design: method as in PMID 36986562; conditions: read-out: IC50 of main protease Mpro inhibition; cited from earlier work
Vero E6 cells = assay: Cytotoxicity evaluation using MTT viability assay; conditions: Vero E6 cytotoxicity IC50 compared with the antiviral activity maximum concentration (10 mM printed in footnote, 10 uM in text)
COVID-19 = test system: COVID-19; design: method as in PMID 34914868; conditions: adult patients with mild-to-moderate COVID-19, not hospitalized, phase-3; cited from earlier work
[4] = in vitro enzyme assay, read-out: IC50 against SARS-CoV-2 Mpro
[5] = Severe acute respiratory syndrome coronavirus 2, Vero C1008, 1 uM, infected Vero E6 cells, read-out: % of inhibition of SARS CoV-2

Row | Molecule | (API) Antiviral potency index [1] | melting point [°C] | also measured
1 | O=C(Cn1cc(COc2ccc(/C=N/N3C(=O)c4ccccc4C3=O)cc2)nn1)NCc1ccc(F)cc1 [Compound 6g, (E)-2–(4-((4-(((1,3-dioxoisoindolin-2-yl)imino)methyl)phenoxy)methyl)-1H-1,2,3-triazol-1-yl)-N-(4-fluorobenzyl) acetamide] | 0.97 |  | inhibition at 10 µM ([1]; infected Vero E6 cells): 94%; IC50 (SARS-CoV-2 Mpro; [4]): 90.1 ± 4.59 µM
2 | (E)-2-((4-((1–(3-fluoro-4-methylphenyl)-1H-1,2,3-triazol-4-yl)methoxy)benzylidene)amino) Isoindoline-1,3-dione [Compound 8d] | 0.92 |  | 
3 | O=C(Cn1cc(COc2ccc(/C=N/N3C(=O)c4ccccc4C3=O)cc2)nn1)Nc1ccc(F)cc1 [Compound 6e, (E)-2–(4-((4-(((1,3-dioxoisoindolin-2-yl)imino)methyl)phenoxy)methyl)-1H-1,2,3-triazol-1-yl)-N-(4-fluorophenyl) acetamide] | 0.96 | 219 to 220 | 
4 | O=C(Cn1cc(COc2ccc(/C=N/N3C(=O)c4ccccc4C3=O)cc2)nn1)Nc1ccc(C(=O)O)cc1 [Compound 6a, (E)-4–(2-(4-((4-(((1,3-dioxoisoindolin-2-yl)imino)methyl)phenoxy)methyl)-1H-1,2,3-triazol-1-yl)acetamido)benzoic acid] | 0.98 | 264 to 265 | % of inhibition of SARS CoV-2 ([1]; 10 uM, infected Vero E6 cells): 94.96%; inhibition at 0.01 µM ([1]; Severe acute respiratory syndrome coronavirus 2, Vero C1008, 0.01 uM): ~40%; inhibition at 1 µM [1, 5]: 87.8%; inhibition at 10 µM ([1]; infected Vero E6 cells): 94%; EC50 ([1]; Severe acute respiratory syndrome coronavirus 2, Vero C1008, dose-response at five concentrations starting from 10 uM, read-out: EC50 of virus inhibition): 38 nM; IC50 (SARS-CoV-2 Mpro; [4]): 113 ± 5.75 µM
5 | CC(=O)OC[C@@H]1O[C@H](n2cc(COc3ccc(/C=N/N4C(=O)c5ccccc5C4=O)cc3)nn2)[C@@H](OC(C)=O)[C@H](OC(C)=O)[C@H]1OC(C)=O [Compound 10a, (2S,3S,4R,5S,6S)-2-(acetoxymethyl)-6–(4-((4-((E)-((1,3-dioxoisoindolin-2-yl)imino)methyl)phenoxy)methyl)-1H-1,2,3-triazol-1-yl)tetrahydro-2H-pyran-3,4,5-triyl triacetate] | 0.92 | 166 to 167 | IC50 (SARS-CoV-2 Mpro; [4]): 1090 ± 55.5 µM
6 | O=C(Cn1cc(COc2ccc(/C=N/N3C(=O)c4ccccc4C3=O)cc2)nn1)Nc1ccc(I)cc1F [Compound 6c, (E)-2–(4-((4-(((1,3-dioxoisoindolin-2-yl)imino)methyl)phenoxy)methyl)-1H-1,2,3-triazol-1-yl)-N-(2-fluoro-4-iodophenyl)acetamide] | 0.96 | 228 to 229 | 
7 | CC(C)(C)[C@H](NC(=O)C(F)(F)F)C(=O)N1C[C@H]2[C@@H]([C@H]1C(=O)N[C@H](C#N)C[C@@H]1CCNC1=O)C2(C)C [Nirmatrelvir] |  |  | decrease in hospitalisation or mortality (SARS-CoV-2 [2]): 89%
8 | O=C1c2ccccc2C(=O)N1/N=C/c1ccc(OCc2cn(-c3ccc(F)cc3)nn2)cc1 [Compound 8a, (E)-2-((4-((1–(4-fluorophenyl)-1H-1,2,3-triazol-4-yl)methoxy)benzylidene)amino) isoindoline-1,3-dione] | 0.96 | 238 to 239 | 
9 | O=C(Cn1cc(COc2ccc(/C=N/N3C(=O)c4ccccc4C3=O)cc2)nn1)Nc1ccc([N+](=O)[O-])cc1 [Compound 6d, (E)-2–(4-((4-(((1,3-dioxoisoindolin-2-yl)imino)methyl)phenoxy)methyl)-1H-1,2,3-triazol-1-yl)-N-(4-nitrophenyl)acetamide] | 0.98 | 242 to 243 | 
10 | O=C1c2ccccc2C(=O)N1/N=C/c1ccc(OCc2cn(-c3ccccc3F)nn2)cc1 [Compound 8e, (E)-2-((4-((1–(2-fluorophenyl)-1H-1,2,3-triazol-4-yl)methoxy)benzylidene)amino)isoindoline-1,3-dione] | 0.98 | 248 to 249 | inhibition at 1 µM [1, 5]: 83.6%
11 | CC1=NN(c2ccc(Cl)cc2)C(=O)/C1=C\c1ccc(OCc2cn(CC(=O)Nc3ccc(C(=O)O)cc3)nn2)cc1 [Compound 11] |  |  | inhibition of SARS-CoV-2 growth (SARS-CoV-2 [3]): 63.39 ± 0.48%; IC50 (main protease Mpro): 3.16 ± 1.2 µM
12 | Cc1cccc(C)c1OCC(=O)N[C@@H](Cc1ccccc1)[C@@H](O)C[C@H](Cc1ccccc1)NC(=O)[C@H](C(C)C)N1CCCNC1=O [Lopinavir, reference compound] |  |  | IC50 (SARS-CoV-2 Mpro): 149 ± 7.48 µM
13 | O=C1c2ccccc2C(=O)N1/N=C/c1ccc(OCc2cn(-c3ccc(Cl)c(Cl)c3)nn2)cc1 [Compound 8g, (E)-2-((4-((1–(3,4-dichlorophenyl)-1H-1,2,3-triazol-4-yl)methoxy)benzylidene)amino)isoindoline-1,3-dione] | 0.96 |  | 
14 | O=C(Cn1cc(COc2ccc(/C=N/N3C(=O)c4ccccc4C3=O)cc2)nn1)Nc1ccccc1I [Compound 6b, (E)-2–(4-((4-(((1,3-dioxoisoindolin-2-yl)imino)methyl)phenoxy)methyl)-1H-1,2,3-triazol-1-yl)-N-(2-iodophenyl) acetamide] | 0.97 | 213 to 214 | 
15 | (E)-2-((4-((1–(4-nitrophenyl)-1H-1,2,3-triazol-4-yl)methoxy)benzylidene)amino)isoindoline-1,3-dione [Compound 8c] | 0.96 |  | CT/A Cytotoxicity/activity parameter (Vero E6 cells): 8.62
16 | O=C(O)c1ccc(-n2cc(COc3ccc(/C=N/N4C(=O)c5ccccc5C4=O)cc3)nn2)cc1 [Compound 8b, (E)-4–(4-((4-(((1,3-dioxoisoindolin-2-yl)imino)methyl)phenoxy)methyl)-1H-1,2,3-triazol-1-yl)benzoic acid] | 0.91 | 287 to 288 | 
17 | CCC(CC)COC(=O)[C@H](C)N[P@](=O)(OC[C@H]1O[C@@](C#N)(c2ccc3c(N)ncnn23)[C@H](O)[C@@H]1O)Oc1ccccc1 [Remdesivir, reference compound] |  |  | inhibition at 1 µM ([1]; Severe acute respiratory syndrome coronavirus 2, Vero C1008, read-out: % of inhibition of SARS CoV-2): 92.7%; EC50 ([1]; Severe acute respiratory syndrome coronavirus 2, Vero C1008, read-out: EC50 of virus inhibition): 29 nM; CT/A Cytotoxicity/activity parameter (Vero E6 cells): 4.31
18 | Cc1ccc(CNC(=O)Cn2cc(COc3ccc(/C=N/N4C(=O)c5ccccc5C4=O)cc3)nn2)cc1 [Compound 6f, (E)-2–(4-((4-(((1,3-dioxoisoindolin-2-yl)imino)methyl)phenoxy)methyl)-1H-1,2,3-triazol-1-yl)-N-(4-methylbenzyl) acetamide] | 0.92 | 201 to 202 | 
19 | CCOC(=O)c1ccc(-n2cc(COc3ccc(/C=N/N4C(=O)c5ccccc5C4=O)cc3)nn2)cc1 [Compound 8f, ethyl (E)-4–(4-((4-(((1,3-dioxoisoindolin-2-yl)imino)methyl)phenoxy)methyl)-1H-1,2,3-triazol-1-yl)benzoate] | 0.91 | 224 to 225 | 
20 | O=C(Cn1cc(COc2ccc(/C=N/N3C(=O)c4ccccc4C3=O)cc2)nn1)NCc1ccc(Cl)cc1 [Compound 6h, (E)-N-(4-chlorobenzyl)-2–(4-((4-(((1,3-dioxoisoindolin-2-yl)imino)methyl)phenoxy)methyl)-1H-1,2,3-triazol-1-yl)acetamide] | 0.95 | 208 to 209 | 
21 | CC(=O)c1ccc(-n2cc(COc3ccc(/C=N/N4C(=O)c5ccccc5C4=O)cc3)nn2)cc1 [Compound 8h, (E)-2-((4-((1–(4-acetylphenyl)-1H-1,2,3-triazol-4-yl)methoxy)benzylidene)amino)isoindoline-1,3-dione] | 0.96 | 275 to 276 | 
22 | CC(C)C(=O)OC[C@H]1O[C@@H](n2ccc(NO)nc2=O)[C@H](O)[C@@H]1O [Moldupiravir] |  |  | reduction of the risk of death or hospitalisation (COVID-19): 30%
23 | CC(=O)OC[C@@H]1O[C@H](n2cc(COc3ccc(/C=N/N4C(=O)c5ccccc5C4=O)cc3)nn2)[C@@H](OC(C)=O)[C@H](OC(C)=O)[C@@H]1OC(C)=O [Compound 10b, (2S,3R,4R,5S,6S)-2-(acetoxymethyl)-6–(4-((4-((E)-((1,3-dioxoisoindolin-2-yl)imino)methyl)phenoxy)methyl)-1H-1,2,3-triazol-1-yl)tetrahydro-2H-pyran-3,4,5-triyl triacetate] | 0.90 |  | 
